Source: patent publication US20260191968A1, “PROTAC DEGRADERS OF MLLT1 AND/OR MLLT3” (DARK BLUE THERAPEUTICS LTD, priority 2024, published 2026)

Experiments:
MLLT1 = target: T1, MLLT1 (Homo sapiens, UniProt Q03111); experiment: MLLT1 degradation assay in MV4-11 cells (JESS chemiluminescent detection), three concentrations, 24 h; type: cell-based; settings: with respect to DMSO control
T1 construct: host or cells: MV4-11
T1 sequence (Q03111 1-559): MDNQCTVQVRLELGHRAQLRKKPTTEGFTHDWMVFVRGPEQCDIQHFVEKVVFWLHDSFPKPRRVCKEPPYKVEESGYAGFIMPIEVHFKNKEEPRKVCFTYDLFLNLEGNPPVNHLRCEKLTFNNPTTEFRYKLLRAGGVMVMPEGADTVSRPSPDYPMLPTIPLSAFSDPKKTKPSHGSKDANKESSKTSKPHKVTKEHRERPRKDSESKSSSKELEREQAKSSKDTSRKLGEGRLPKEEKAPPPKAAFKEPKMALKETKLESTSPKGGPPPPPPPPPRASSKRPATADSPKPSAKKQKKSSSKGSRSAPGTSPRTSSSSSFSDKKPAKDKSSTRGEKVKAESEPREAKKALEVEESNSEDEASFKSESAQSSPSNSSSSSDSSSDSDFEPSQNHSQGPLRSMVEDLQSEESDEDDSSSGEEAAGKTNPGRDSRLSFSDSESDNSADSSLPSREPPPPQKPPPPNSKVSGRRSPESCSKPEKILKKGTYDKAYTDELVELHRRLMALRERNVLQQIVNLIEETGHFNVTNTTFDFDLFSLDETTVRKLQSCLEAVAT
Summary of the method: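 Read-out is % MLLT1 degradation versus DMSO, from band peak areas on a JESS chemiluminescent system. Cells (MV4-11) were exposed for 24 h at 37° C to three compound levels, 10, 100 and 1000 nM, in 0.1% DMSO.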

MV4-11 cells = experiment: MV4-11 cellular proliferative assay, Assay Format B (CTG 2.0, 168 h); type: cell-based; settings: Homo sapiens, 168 h (7 days), CTG 2.0, read-out: IC50 (MV4-11 cellular proliferative assay, Assay format B)
Method: MV4-11 cells at a confluency of ~50-80% was used for cell growth assay. 600 cells/well in a 384-well opaque cell culture plate (6007680; Perkin Elmer) were seeded in 40 μL of complete medium (IMDM+10% FBS+1X Penicillin-Streptomycin). Cells were incubated overnight at 37° C., 5% CO2. 10 mM DMSO stocks were prepared, cells were treated with 10 concentrations of test compounds starting from 1 uM or 100 nM, 3-fold dilution in 10 uL (5×concentration) of complete medium. Final DMSO concentration was 0.3%. Culture plates were centrifuged at 40×g, 30s. Cells were incubated with compounds for 168 h (7 days). After 7 days, 20 uL CTG 2.0 reagent (G9242; Promega) was added per well and luminescence reading was taken in Envision Xcite 2105 multimode plate reader. Data was analyzed in GraphPad Prism 10.0 and data was shown as % viability with respect to DMSO control and dose-response curves were generated using four parameter logistic regression. Assay quality was determined by z-factor calculation using positive and negative controls.

CN1CCC[C@@H]1c1cc2cnc(NC(=O)c3ccc(CCCC4CCN(c5cccc6c5CN(C5CCC(=O)NC5=O)C6=O)CC4)cc3)cc2[nH]1 (mixture of isomers) [Example 76, 4-(3-(1-(2-(2,6-dioxopiperidin-3-yl)-1-oxoisoindolin-4-yl)piperidin-4-yl)propyl)-N-(2-((R)-1-methylpyrrolidin-2-yl)-1H-pyrrolo[3,2-c]pyridin-6-yl)benzamide]
MLLT1% Degradation @ 0.01 μM (MLLT1): A (Category A: A ≥ 75% degradation)
MLLT1% Degradation @ 0.1 μM (MLLT1): A (Category A: A ≥ 75% degradation)
MLLT1% Degradation @ 1 μM (MLLT1): A (Category A: A ≥ 75% degradation)
IC50 (MV4-11 cells): ≤ 0.1 µM

CN1CCC[C@@H]1c1cc2cnc(NC(=O)c3ccc(OCCC4CCN(c5cccc6c5CN(C5CCC(=O)NC5=O)C6=O)CC4)cc3)cc2[nH]1 (mixture of isomers) [Example 79, 4-(2-(1-(2-(2,6-dioxopiperidin-3-yl)-1-oxoisoindolin-4-yl)piperidin-4-yl)ethoxy)-N-(2-((R)-1-methylpyrrolidin-2-yl)-1H-pyrrolo[3,2-c]pyridin-6-yl)benzamide]
MLLT1% Degradation @ 0.01 μM (MLLT1): A (Category A: A ≥ 75% degradation)
MLLT1% Degradation @ 0.1 μM (MLLT1): A (Category A: A ≥ 75% degradation)
MLLT1% Degradation @ 1 μM (MLLT1): A (Category A: A ≥ 75% degradation)
IC50 (MV4-11 cells): ≤ 0.1 µM

CN1CCC[C@@H]1c1cc2cnc(NC(=O)c3ccc(N4CCN(CC5CCN(c6cccc7c6CN(C6CCC(=O)NC6=O)C7=O)CC5)CC4)cc3)cc2[nH]1 (mixture of isomers) [Example 116, 4-(4-((1-(2-(2,6-dioxopiperidin-3-yl)-1-oxoisoindolin-4-yl)piperidin-4-yl)methyl)piperazin-1-yl)-N-(2-((R)-1-methylpyrrolidin-2-yl)-1H-pyrrolo[3,2-c]pyridin-6-yl)benzamide]
MLLT1% Degradation @ 0.01 μM (MLLT1): B (Category B: 50% ≤ B < 75% degradation)
MLLT1% Degradation @ 0.1 μM (MLLT1): A (Category A: A ≥ 75% degradation)
MLLT1% Degradation @ 1 μM (MLLT1): A (Category A: A ≥ 75% degradation)
IC50 (MV4-11 cells): ≤ 0.1 µM

CN1CCC[C@@H]1c1cc2cnc(NC(=O)c3ccc(OC4CCN(CC5CCN(c6cccc7c6CN(C6CCC(=O)NC6=O)C7=O)CC5)CC4)cc3)cc2[nH]1 (mixture of isomers) [Example 121, 4-((1-((1-(2-(2,6-dioxopiperidin-3-yl)-1-oxoisoindolin-4-yl)piperidin-4-yl)methyl)piperidin-4-yl)oxy)-N-(2-((R)-1-methylpyrrolidin-2-yl)-1H-pyrrolo[3,2-c]pyridin-6-yl)benzamide]
MLLT1% Degradation @ 0.01 μM (MLLT1): A (Category A: A ≥ 75% degradation)
MLLT1% Degradation @ 0.1 μM (MLLT1): A (Category A: A ≥ 75% degradation)
MLLT1% Degradation @ 1 μM (MLLT1): A (Category A: A ≥ 75% degradation)
IC50 (MV4-11 cells): ≤ 0.1 µM

C[C@@H]1CN(CC2CCN(c3cccc4c3CN(C3CCC(=O)NC3=O)C4=O)CC2)CCN1c1ccc(C(=O)Nc2cc3[nH]c([C@H]4CCCN4C)cc3cn2)cc1 (mixture of isomers) [Example 133, 4-((2R)-4-((1-(2-(2,6-dioxopiperidin-3-yl)-1-oxoisoindolin-4-yl)piperidin-4-yl)methyl)-2-methylpiperazin-1-yl)-N-(2-((R)-1-methylpyrrolidin-2-yl)-1H-pyrrolo[3,2-c]pyridin-6-yl)benzamide]
MLLT1% Degradation @ 0.01 μM (MLLT1): A (Category A: A ≥ 75% degradation)
MLLT1% Degradation @ 0.1 μM (MLLT1): A (Category A: A ≥ 75% degradation)
MLLT1% Degradation @ 1 μM (MLLT1): A (Category A: A ≥ 75% degradation)
IC50 (MV4-11 cells): ≤ 0.1 µM

CN1CCC[C@@H]1c1cc2cnc(NC(=O)c3ccc(CCCCC#Cc4cccc5c4CN([C@H]4CCC(=O)NC4=O)C5=O)cc3)cc2[nH]1 (relative stereo) [Example 104, 4-(6-(2-((rel-S)-2,6-dioxopiperidin-3-yl)-1-oxoisoindolin-4-yl)hex-5-yn-1-yl)-N-(2-((R)-1-methylpyrrolidin-2-yl)-1H-pyrrolo[3,2-c]pyridin-6-yl)benzamide]
IC50 (MV4-11 cells): ≤ 0.1 µM

CN1CCC[C@@H]1c1cc2cnc(NC(=O)c3ccc(CCCCC#Cc4cccc5c4CN([C@@H]4CCC(=O)NC4=O)C5=O)cc3)cc2[nH]1 (relative stereo) [Example 105, 4-(6-(2-((rel-R)-2,6-dioxopiperidin-3-yl)-1-oxoisoindolin-4-yl)hex-5-yn-1-yl)-N-(2-((R)-1-methylpyrrolidin-2-yl)-1H-pyrrolo[3,2-c]pyridin-6-yl)benzamide]
IC50 (MV4-11 cells): ≤ 0.1 µM

CN1CCC[C@@H]1c1cc2cnc(NC(=O)c3ccc(CCCC#Cc4ccc5c(c4)C(=O)N(C4CCC(=O)NC4=O)C5)cc3)cc2[nH]1 (stereo partly drawn) [Example 225, 4-(5-(2-(2,6-dioxopiperidin-3-yl)-3-oxoisoindolin-5-yl)pent-4-yn-1-yl)-N-(2-((R)-1-methylpyrrolidin-2-yl)-1H-pyrrolo[3,2-c]pyridin-6-yl)benzamide]
MLLT1% Degradation @ 0.01 μM (MLLT1): C (Category C: 25% ≤ C < 50% degradation)
MLLT1% Degradation @ 0.1 μM (MLLT1): C (Category C: 25% ≤ C < 50% degradation)
MLLT1% Degradation @ 1 μM (MLLT1): C (Category C: 25% ≤ C < 50% degradation)

CN1CCC[C@@H]1c1cc2cnc(NC(=O)c3ccc(N4CC[C@@H](CC#Cc5cccc6c5CN(C5CCC(=O)NC5=O)C6=O)C4)nc3)cc2[nH]1 (stereo partly drawn) [Example 226, 6-((3R)-3-(3-(2-(2,6-dioxopiperidin-3-yl)-1-oxoisoindolin-4-yl)prop-2-yn-1-yl)pyrrolidin-1-yl)-N-(2-((R)-1-methylpyrrolidin-2-yl)-1H-pyrrolo[3,2-c]pyridin-6-yl)nicotinamide]
MLLT1% Degradation @ 0.01 μM (MLLT1): B (Category B: 50% ≤ B < 75% degradation)
MLLT1% Degradation @ 0.1 μM (MLLT1): B (Category B: 50% ≤ B < 75% degradation)
MLLT1% Degradation @ 1 μM (MLLT1): C (Category C: 25% ≤ C < 50% degradation)

CN1CCC[C@@H]1c1cc2cnc(NC(=O)c3ccc(OC4CN(CCC5CCN(c6ccc7c(c6)C(=O)N(C6CCC(=O)NC6=O)C7=O)CC5)C4)cc3)cc2[nH]1 (stereo partly drawn) [Example 227, 4-((1-(2-(1-(2-(2,6-dioxopiperidin-3-yl)-1,3-dioxoisoindolin-5-yl)piperidin-4-yl)ethyl)azetidin-3-yl)oxy)-N-(2-((R)-1-methylpyrrolidin-2-yl)-1H-pyrrolo[3,2-c]pyridin-6-yl)benzamide]
MLLT1% Degradation @ 0.01 μM (MLLT1): D (Category D: D < 25% degradation)
MLLT1% Degradation @ 0.1 μM (MLLT1): C (Category C: 25% ≤ C < 50% degradation)
MLLT1% Degradation @ 1 μM (MLLT1): C (Category C: 25% ≤ C < 50% degradation)

CN1CCC[C@@H]1c1cc2cnc(NC(=O)c3ccc(N4CCC(OCC5CCN(c6ccc7c(c6)CN(C6CCC(=O)NC6=O)C7=O)CC5)CC4)nc3)cc2[nH]1 (stereo partly drawn) [Example 228, 6-(4-((1-(2-(2,6-dioxopiperidin-3-yl)-1-oxoisoindolin-5-yl)piperidin-4-yl)methoxy)piperidin-1-yl)-N-(2-((R)-1-methylpyrrolidin-2-yl)-1H-pyrrolo[3,2-c]pyridin-6-yl)nicotinamide]
MLLT1% Degradation @ 0.01 μM (MLLT1): C (Category C: 25% ≤ C < 50% degradation)
MLLT1% Degradation @ 0.1 μM (MLLT1): D (Category D: D < 25% degradation)
MLLT1% Degradation @ 1 μM (MLLT1): D (Category D: D < 25% degradation)

CN1CCC[C@@H]1c1[nH]c2cc(NC(=O)c3ccc(OCCC4CCN(c5cccc6c5CN(C5CCC(=O)NC5=O)C6=O)CC4)c(F)c3)ncc2c1Cl (stereo partly drawn) [Example 229, N-(3-chloro-2-((R)-1-methylpyrrolidin-2-yl)-1H-pyrrolo[3,2-c]pyridin-6-yl)-4-(2-(1-(2-(2,6-dioxopiperidin-3-yl)-1-oxoisoindolin-4-yl)piperidin-4-yl)ethoxy)-3-fluorobenzamide]
MLLT1% Degradation @ 0.01 μM (MLLT1): A (Category A: A ≥ 75% degradation)
MLLT1% Degradation @ 0.1 μM (MLLT1): A (Category A: A ≥ 75% degradation)
MLLT1% Degradation @ 1 μM (MLLT1): A (Category A: A ≥ 75% degradation)

CN1CCC[C@@H]1c1[nH]c2cc(NC(=O)c3ccc(CCCC4CCN(c5cccc6c5CN([C@H]5CCC(=O)NC5=O)C6=O)CC4)cc3)ncc2c1Cl [Example 233, N-(3-chloro-2-((R)-1-methylpyrrolidin-2-yl)-1H-pyrrolo[3,2-c]pyridin-6-yl)-4-(3-(1-(2-((S)-2,6-dioxopiperidin-3-yl)-1-oxoisoindolin-4-yl)piperidin-4-yl)propyl)benzamide]
MLLT1% Degradation @ 0.01 μM (MLLT1): A (Category A: A ≥ 75% degradation)
MLLT1% Degradation @ 0.1 μM (MLLT1): A (Category A: A ≥ 75% degradation)
MLLT1% Degradation @ 1 μM (MLLT1): A (Category A: A ≥ 75% degradation)
